From PMC6199744, “Development of Chemical Proteomics for the Folateome and Analysis of the Kinetoplastid Folateome” (ACS Infectious Diseases, 2018)
Like-named read-outs stand apart in the source and are kept apart here.

Test system: T. brucei lysate proteins
Type: binding, Trypanosoma brucei
Details: vehicle control = 1

Nc1nc2c(c(=O)[nH]1)N(C=O)C(CNc1ccc(C(=O)N[C@@H](CCC(=O)O)C(=O)O)cc1)CN2 (stereo partly drawn) [LEU, leucovorin]
fold change (protein TB427.06.3630 SPHINGOSINE 1-PHOSPHATE LYASE, PUTATIVE): 0.94 | fold change (protein TB427.06.3670 PAR[…] COMPONENT, PUTATIVE): 0.77 | fold change vs vehicle control (protein TB427.06.4480 VALYL-TRNA SYNTHETASE, PUTATIVE): 1.07 | fold change (protein TB427.06.4740 IMPORTIN-ALPHA RE-EXPORTER PROTEIN, PUTATIVE): 1.22 | fold change (protein TB427.06.700 ALANYL-TRNA SYNTHETASE, PUTATIVE): 0.94 | fold change vs vehicle control (protein TB427.07.1300 PROTEIN DISULFIDE ISOMERASE, PUTATIVE): 1.76 | fold change (protein TB427.07.1420 HY[…], CONSERVED): 0.96 | fold change (protein TB427.07.2340 40S RIBOSOMAL PROTEIN S15, PUTATIVE): 0.96 | fold change vs vehicle control (protein TB427.07.3160 DYNEIN HEAVY CHAIN, CYTOSOLIC, PUTATIVE): 0.86 | fold change (protein TB427.07.3530 HY[…], CONSERVED): 0.87 | fold change (protein TB427.07.4180 FATTY ACID ELONGASE, PUTATIVE): 0.95 | fold change (protein TB427.07.4970 GLUTAMINE SYNTHETASE, PUTATIVE): 0.91 | fold change vs vehicle control (protein TB427.07.7500 THYMINE-7-HYDROXYLASE, PUTATIVE): 0.97 | fold change (protein TB427.08.2060 HY[…], CONSERVED): 0.77 | fold change (protein TB427.08.3490 HY[…], CONSERVED): 1 | fold change (protein TB427.08.3520 HY[…], CONSERVED): 0.94 | fold change (protein TB427.08.3870 HY[…], CONSERVED): 1.66 | fold change (protein TB427.08.5460 FLAGELLAR CALCIUM-BINDING PROTEIN): 1.21 | fold change (protein TB427.08.5760 HY[…], CONSERVED): 0.93 | fold change (protein TB427.08.6390 LYSOPHOSPHOLIPASE, PUTATIVE): 1.26 | fold change (protein TB427.08.650 CATION-TR[…], PUTATIVE): 0.8 | fold change (protein TB427.10.10020 HY[…], CONSERVED): 0.93 | fold change (protein TB427.10.10350 PROTEIN KINASE, PUTATIVE): 0.95 | fold change (protein TB427.10.10360 MICROTUBULE-[…], PUTATIVE): 0.82 | fold change (protein TB427.10.1060 T-COMPLEX PROTEIN 1, DELTA SUBUNIT, PUTATIVE): 1.18 | fold change vs vehicle control (protein TB427.10.10610 PROTEIN TYROSINE PHOSPHATASE, PUTATIVE): 2.13 | fold change vs vehicle control (protein TB427.10.1100 60S RIBOSOMAL PROTEIN L9, PUTATIVE): 1.1 | fold change vs vehicle control (protein TB427.10.11760 PUMILIO/PUF RNA BINDING PROTEIN 6): 0.98 | fold change (protein TB427.10.12710 HEAT SHOCK PROTEIN, PUTATIVE): 2.54 | fold change vs vehicle control (protein TB427.10.12820 HY[…], CONSERVED): 1.13 | fold change (protein TB427.10.14140 PYRUVATE KINASE 1): 1.34 | fold change vs vehicle control (protein TB427.10.14470 INTR[…] PROTEIN IFT140, PUTATIVE): 1.07 | fold change (protein TB427.10.14890 C-TERMINAL MOTOR KINESIN, PUTATIVE): 1.36 | fold change (protein TB427.10.2020 HEXOKINASE): 1.68 | fold change (protein TB427.10.2290 CHAPERONE PROTEIN DNAJ, PUTATIVE): 0.89 | fold change (protein TB427.10.2350 PYRUVATE DEH[…] E3 BINDING PROTEIN, PUTATIVE): 0.89 | fold change (protein TB427.10.4610 […]-MANNOSE SYNTHASE, PUTATIVE): 0.94 | fold change vs vehicle control (protein TB427.10.5810 HY[…], CONSERVED): 2.19 | fold change (protein TB427.10.5840 T[…] 1-BETA, PUTATIVE): 1.21 | fold change (protein TB427.10.5850 HY[…], CONSERVED): 0.84 | fold change (protein TB427.10.6150 […]/BEIGE PROTEIN, PUTATIVE): 0.73 | fold change (protein TB427.10.6310 MAJOR VAULT PROTEIN, PUTATIVE): 0.82 | fold change (protein TB427.10.730 ATP SYNTHASE, PUTATIVE): 0.81 | fold change vs vehicle control (protein TB427.10.7410 SUCCINYL-COA LIGASE GDP-FORMING] BETA-CHAIN, PUTATIVE): 1.13 | fold change vs vehicle control (protein TB427.10.7630 HY[…], CONSERVED): 1.07 | fold change vs vehicle control (protein TB427.10.8230 PROTEIN DISULFIDE ISOMERASE): 2.42 | fold change (protein TB427.10.8910 HY[…], CONSERVED): 0.93 | fold change vs vehicle control (protein TB927.10.12700 PYRUVATE DEHYDROGENASE E1 ALPHA SUBUNIT, PUTATIVE): 0.9 | fold change (protein TB927.10.12740 HY[…], CONSERVED,ZINC FINGER PROTEIN FAMILY MEMEBER, PUTATIVE): 1.1 | fold change (protein TB927.10.12840 MIT[…] PROTEIN, PUTATIVE): 0.92 | fold change vs vehicle control (protein TB927.10.13290 ETHANOLAMINE PHOSPHOTRANSFERASE (EPT)): 0.95 | fold change vs vehicle control (protein TB927.10.14800 PROTEIN KINASE, PUTATIVE): 1.13 | fold change (protein TB927.10.1550 […]-ATP-ASE SUBUNIT 5): 0.94 | fold change vs vehicle control (protein TB927.10.2890 ENOLASE): 1.93 | fold change (protein TB927.10.2980 […]-ATPASE SUBUNIT 11): 0.91 | fold change vs vehicle control (protein TB927.10.4570 […] 2): 1.87 | fold change (protein TB927.10.4690 DYNEIN LIGHT CHAIN, PUTATIVE): 0.96 | fold change (protein TB927.10.5370 40S RIBOSOMAL PROTEIN S10, PUTATIVE): 1 | fold change vs vehicle control (protein TB927.10.540 ATP-DEPENDENT DEAD/H RNA HELICASE, PUTATIVE): 1.4 | fold change (protein TB927.10.5500 HY[…], CONSERVED): 0.99 | fold change vs vehicle control (protein TB927.10.560 40S RIBOSOMAL PROTEINS S11, PUTATIVE): 1.35 | fold change (protein TB927.10.6050 CLATHRIN HEAVY CHAIN): 0.82 | fold change vs vehicle control (protein TB927.10.8030 HY[…], CONSERVED): 0.97 | fold change vs vehicle control (protein TB927.10.8160 HY[…], CONSERVED): 0.94 | fold change (protein TB927.2.100 RETRO[…] SPOT (RHS) PROTEIN, PUTATIVE,RETRO[…] SPOT PROTEIN 1 (RHS1), PUTATIVE): 1.21 | fold change vs vehicle control (protein TB927.2.2440 […]-ATPASE SUBUNIT 6): 1.21 | fold change (protein TB927.2.3800 MRNA […], PUTATIVE): 0.96 | fold change (protein TB927.3.1240 PROTEIN PHOSPHATASE 2A, PUTATIVE): 0.82 | fold change (protein TB927.3.1840 3-OXO-5-ALPHA-STEROID 4-DEHYDROGENASE, PUTATIVE): 0.93 | fold change vs vehicle control (protein TB927.3.2960 INOSINE-ADENOSINE-GUANOSINE-[…]): 2.01 | fold change (protein TB927.3.3190 SERINE/THREONINE-PROTEIN KINASE, PUTATIVE): 0.93 | fold change vs vehicle control (protein TB927.3.3450 ADP-RI[…]-LIKE PROTEIN 3A, PUTATIVE): 2.74 | fold change vs vehicle control (protein TB927.3.3490 HIGH MOBILITY GROUP PROTEIN, PUTATIVE): 1.29 | fold change vs vehicle control (protein TB927.3.5120 HY[…], CONSERVED (Ankyrin repeats (3 copies), putative)): 1.41 | fold change vs vehicle control (protein TB927.3.740 HY[…], CONSERVED): 0.99 | fold change vs vehicle control (protein TB927.4.2740 HY[…], CONSERVED (p25-alpha, putative)): 2.04 | fold change (protein TB927.4.3590 T[…] 1-BETA, PUTATIVE): 1.21 | fold change vs vehicle control (protein TB927.4.3820 HY[…], CONSERVED): 0.99 | fold change (protein TB927.5.1630 HY[…], CONSERVED): 0.83 | fold change vs vehicle control (protein TB927.5.4440 DYNEIN LIGHT CHAIN, PUTATIVE): 1.1 | fold change (protein TB927.6.2200 HY[…], CONSERVED): 0.98 | fold change vs vehicle control (protein TB927.6.3740 HEAT SHOCK 70 KDA PROTEIN, MIT[…], PUTATIVE): 1.13 | fold change (protein TB927.6.4980 40S RIBOSOMAL PROTEIN S14): 0.97 | fold change vs vehicle control (protein TB927.7.1750 60S RIBOSOMAL PROTEIN L7, PUTATIVE): 1.49 | fold change vs vehicle control (protein TB927.7.4470 HY[…], CONSERVED): 1.31 | fold change vs vehicle control (protein TB927.7.7430 ATP SYNTHASE ALPHA CHAIN, MIT[…]): 1.2 | fold change (protein TB927.8.4330 SMALL GTP-BINDING PROTEIN RAB11): 0.97 | fold change (protein TB927.8.4770 SMALL GTP-BINDING PROTEIN RAB18): 0.93 | fold change vs vehicle control (protein TB927.8.4810 PROHIBITIN 1): 0.99 | fold change (protein TB-292 MEMBRANE ASSOCIATED PROTEIN): 0.88
